Measurements from patent US11155546B2, “4,6,7-trisubstituted 1,2-dihydropyrrolo[3,4-c]pyridin/pyrimidin-3-one derivatives and uses thereof” (SHANGHAI HAIYAN PHARMACEUTICAL TECHNOLOGY CO., LTD., priority 2017, dated 2021).

Tests used:
[1] = target: βBTK Y223 (Homo sapiens (Human), UniProt Q06187); assay: Intracellular βBTK Y223 phosphorylation HTRF in Ramos cells; type: cell-based
Description: The compound was predissolved in 100% DMSO. […] 20 μl of lysate (4× lysate: blocked mother liquor is 25:1) was added to each well and incubated for 30 minutes at 25° C. on a shaker. It was shaken on an oscillator at 800 rpm for 1 minute. […] The half-inhibitory concentration IC50 was calculated by fitting with XLFIT 5.0 software (IDBS, UK).

[2] = target: wild-type EGFR kinase (Homo sapiens (Human), UniProt P00533); assay: Wild type EGFR kinase inhibition test (z-lyte); type: biochemical; conditions: 10 μM ATP; read-out: EGFR WT IC50
Description: All the following reagents used in z-lyte test are commercially available from Invitrogen.
The calculation method for the inhibition ratio (referring to the specification of Invitrogen, PV3363) was as follows: ER=Coumarin Emission(450 nm)/Fluorescein Emission(520 nm) 1. Phosphorylation ratio=(1−((ER×C3520nm−C3450nm)/((C1450nm−C3450nm)+ER×(C3520nm−C1520nm))))×100% 2. Inhibition ratio (IR)=(1−phosphorylation ratio of the test compound)/(phosphorylation ratio of C2))×100% 3.
The half-inhibitory concentration IC50 was calculated by fitting with XLFIT 5.0 software (IDBS, UK).

[3] = target: BTK WT (Homo sapiens (Human), UniProt Q06187); assay: Lantha screening kinase reaction, inhibition of BTK WT; type: biochemical
Description: The compound was predissolved in 100% DMSO. 10 mM drug stock solution was obtained by dissolution at room temperature and then serially diluted with 8 vol % DMSO solution to a final concentration of 10-0.005 μM. […] Among the wells, the kinase in the blank well was replaced with a reaction buffer and the kinase well (Enzyme) was not added with any drug. After shaking at 25° C. for 60 minutes in the dark, 10 μl of Detection Solution (mixture of Invitrogen PV3528 and EDTA, which was diluted with TR-FRET dilution buffer, the working concentration of EDTA was 5 mM, the working concentration of Lanthascreening Tb PY20 antibody was 0.2 nM) was added and shaken at room temperature for 30 minutes. The plates were read on a VictorX5 fluorescent plate reader (PerkinElmer) and the light absorption at an excitation wavelength of 340 nm and emission wavelengths of 500 nm and 520 nm was measured.
The calculation method for the inhibition ratio (referring to the specification of Invitrogen, PV3363) was as follows: Emission ratio (ER):Coumarin Emission (520 nm)/Fluorescein Emission (500 nm) 1. The inhibition ratio (IR):(ERkinase−ERtest compound)/(ERkinase−ERblank)×100%. 2.
The half-inhibitory concentration IC50 was calculated by fitting with XLFIT5.0 software (IDBS, UK).

[4] = in vivo; conditions: mouse, in vivo, po, 30 mg/kg
Description: Test Animals: ICR mice, weight 28-30 g, male, totally 12, purchased from SLAC Laboratory Animal Co., Ltd. Mice were fasting one night before administration and freely fed 4 hours after administration.
Administration and Blood collection: 6 mice were administered intragastrically (PO) in a administered dosage of 30 mg/kg and a administered volume of 10 mL/kg. One administration route was subjected with 6 mice, blood samples of three mice were collected at one time point, and blood samples of another three mice were collected at alternate time point alternately. Blood was collected at 8 time points of 0.083, 0.25, 0.5, 1, 2, 4, 8, 24 h after administration respectively.
Animals were manually controlled at the time of collection and approximately 80 μL of blood was collected from the mice fundus venous plexus into a tube containing K2EDTA. The collected blood sample was put on wet ice, centrifuged within 15 min (8000 rpm, 4 min at 4° C.), and then the plasma sample was taken and stored at minus 20° C. till analysis. The compounds were prepared on the day of the experiment.
Solvent excipient information: DMSO (brand: Sigma, batch number: SHBD2446V); 2-hydroxypropyl-3-cyclodextrin (brand: Sigma, batch number: BCBN8227V), acetic acid (brand: Sinopharm Group, batch number: 20150616), sodium acetate (Brand: GENERAL-REAGENT, batch number: P1246037).
Preparation of a 3 mg/mL PO dosing solution: the solvent was a solution of 5% DMSO and 95% PH4.5 (sodium acetate-acetate) in 20% of 2-hydroxypropyl-β-cyclodextrin.
Analytical method: Plasma samples were analyzed by liquid chromatography-tandem mass spectrometry (Instrument type: Triple Quad™ 4000).
Preparation of the standard curve: preparing a standard curve of the test compound 1n the plasma matrix of ICR mice with a linear range of 1.00-3000 ng/mL, and preparing control samples at low, medium and high concentrations of 3 ng/mL, 500 ng/mL, and 2400 ng/mL respectively.
Treatment of biological samples: the frozen plasma samples were thawed on ice, and after the samples were thawed, they were vortexed on a vortex for 5 min. 20 μL of plasma sample was added to a 96-well plate, and 200 μL of acetonitrile (brand: Merck, Lot: 1854029643) containing an internal standard dexamethasone (Brand: NIFDC, Lot: 1N2V-DPGY, 2000 ng/mL) was added to precipitate protein, which were vortexed for 5 min, and then centrifuged at 3700 rpm and 4° C. for 15 min. The supernatant was extracted and twice centrifuged under the same conditions, and finally 2 μL of the supernatant solution was analyzed by LC-MS/MS.

Sequence of wild-type EGFR kinase (P00533 25-1210): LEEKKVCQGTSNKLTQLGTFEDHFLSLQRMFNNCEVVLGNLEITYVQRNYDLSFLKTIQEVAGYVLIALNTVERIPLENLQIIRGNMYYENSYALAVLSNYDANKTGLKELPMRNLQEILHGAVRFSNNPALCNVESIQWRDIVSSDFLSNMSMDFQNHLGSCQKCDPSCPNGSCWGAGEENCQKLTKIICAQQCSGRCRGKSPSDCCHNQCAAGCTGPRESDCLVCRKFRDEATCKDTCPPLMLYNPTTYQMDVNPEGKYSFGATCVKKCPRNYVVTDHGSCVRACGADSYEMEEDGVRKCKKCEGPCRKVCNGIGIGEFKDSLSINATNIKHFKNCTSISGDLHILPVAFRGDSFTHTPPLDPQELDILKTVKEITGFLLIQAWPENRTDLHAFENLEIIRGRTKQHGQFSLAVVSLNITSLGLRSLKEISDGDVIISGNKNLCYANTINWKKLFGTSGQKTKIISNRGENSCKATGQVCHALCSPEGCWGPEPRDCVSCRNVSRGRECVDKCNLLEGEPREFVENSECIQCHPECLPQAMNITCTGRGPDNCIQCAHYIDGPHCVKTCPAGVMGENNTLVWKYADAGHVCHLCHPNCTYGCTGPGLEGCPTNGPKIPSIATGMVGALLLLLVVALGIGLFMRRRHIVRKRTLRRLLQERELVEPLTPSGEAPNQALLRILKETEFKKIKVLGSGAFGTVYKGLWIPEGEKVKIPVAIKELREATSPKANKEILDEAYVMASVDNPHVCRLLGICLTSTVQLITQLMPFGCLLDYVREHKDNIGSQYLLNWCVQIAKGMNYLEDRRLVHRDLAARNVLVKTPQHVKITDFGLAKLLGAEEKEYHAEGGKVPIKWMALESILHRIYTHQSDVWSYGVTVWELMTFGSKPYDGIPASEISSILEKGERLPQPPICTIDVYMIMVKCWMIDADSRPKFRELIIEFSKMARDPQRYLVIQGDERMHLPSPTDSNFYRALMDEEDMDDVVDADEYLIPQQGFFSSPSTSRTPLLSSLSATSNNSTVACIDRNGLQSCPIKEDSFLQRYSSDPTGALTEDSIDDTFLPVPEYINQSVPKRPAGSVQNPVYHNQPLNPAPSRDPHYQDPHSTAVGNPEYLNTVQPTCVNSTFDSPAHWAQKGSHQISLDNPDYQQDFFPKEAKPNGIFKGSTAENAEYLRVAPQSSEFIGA
Sequence of βBTK Y223 (Q06187 whole entry): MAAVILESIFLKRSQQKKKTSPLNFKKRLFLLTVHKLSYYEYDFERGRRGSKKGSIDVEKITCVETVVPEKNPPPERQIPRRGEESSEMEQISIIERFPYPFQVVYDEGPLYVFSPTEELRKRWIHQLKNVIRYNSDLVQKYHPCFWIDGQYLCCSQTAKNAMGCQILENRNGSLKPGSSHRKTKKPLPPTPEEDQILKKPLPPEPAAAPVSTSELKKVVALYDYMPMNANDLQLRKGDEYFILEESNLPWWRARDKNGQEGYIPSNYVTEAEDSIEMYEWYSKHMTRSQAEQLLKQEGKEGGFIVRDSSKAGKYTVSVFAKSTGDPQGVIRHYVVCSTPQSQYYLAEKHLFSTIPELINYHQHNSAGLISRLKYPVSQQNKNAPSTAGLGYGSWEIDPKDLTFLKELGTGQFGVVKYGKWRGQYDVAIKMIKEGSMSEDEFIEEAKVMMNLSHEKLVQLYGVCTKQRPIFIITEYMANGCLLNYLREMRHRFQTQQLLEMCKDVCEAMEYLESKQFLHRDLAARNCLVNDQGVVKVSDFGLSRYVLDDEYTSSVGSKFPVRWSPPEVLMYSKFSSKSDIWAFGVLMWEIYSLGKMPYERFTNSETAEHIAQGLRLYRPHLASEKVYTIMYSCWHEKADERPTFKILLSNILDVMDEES
Sequence of BTK WT (Q06187 whole entry): as above

Q: Which IC50 [1] does the source give for C=CC(=O)N1CC(Nc2nc(Nc3ccc(N4CCOCC4)cc3)c3c(c2F)CNC3=O)CCC1C (centres unmarked) [Compound G-28] here?
A: 10 nM

Q: And the IC50 [2]?
A: 2300 nM

Q: What about the IC50 [3] of the same compound?
A: 5 nM

Q: Which “Area under curve AUC” value [4] does the source give for C=CC(=O)N1CCCC(Nc2nc(Nc3ccc(N4CCOCC4C)cc3)c3c(c2F)CNC3=O)C1 (centres unmarked) [Compound G-32] here?
A: 1463 ng·h/mL

Q: And the “Maximum blood concentration Cmax” value [4]?
A: 837.7 ng/mL

Q: What about the “Oral relative bioavailability F (%)” value [4] of the same compound?
A: 14.7%

Q: And the “Tmax” value [4]?
A: 30 min

Q: What about the “half-time T1/2” value [4] of the same compound?
A: 72.6 min

Q: And the IC50 [2]?
A: 5340 nM

Q: And the IC50 [3]?
A: 5 nM

Q: What does the source list for C=CC(=O)N1CCCC(Nc2nc(Nc3ccc(N4CCOCC4)c(F)c3)c3c(c2F)CNC3=O)C1 (centres unmarked) [Compound G-33]?
A: Area under curve AUC [4]: 1193 ng·h/mL; Maximum blood concentration Cmax [4]: 964.0 ng/mL; Oral relative bioavailability F (%) [4]: 15.6%; Tmax [4]: 4.8 min; half-time T1/2 [4]: 71.4 min; IC50 [2]: 7170 nM; IC50 [3]: 5 nM

Q: Which results are given for C=CC(=O)N1CCCC(Nc2nc(Nc3ccc(N4CCN(C5COC5)CC4C)cc3)c3c(c2F)CNC3=O)C1 (centres unmarked) [Compound G-34]?
A: Area under curve AUC [4]: 1869 ng·h/mL; Maximum blood concentration Cmax [4]: 1990.0 ng/mL; Oral relative bioavailability F (%) [4]: 28.6%; Tmax [4]: 4.8 min; half-time T1/2 [4]: 86.4 min; IC50 [2]: 3170 nM; IC50 [3]: 5 nM

Q: Which IC50 [1] does the source give for C=CC(=O)N1CCCC(Nc2nc(Nc3cnn(C)n3)c3c(c2F)CNC3=O)C1 (centres unmarked) [Compound G-35] here?
A: 35 nM

Q: For C=CC(=O)N1CC(Nc2nc(Nc3ccc(N4CCOCC4)c(F)c3)c3c(c2F)CNC3=O)CCC1C (centres unmarked) [Compound G-41], which IC50 [1] is on record?
A: 3 nM

Q: What about the IC50 [3] of the same compound?
A: 2 nM

Q: Which results are given for C=CC(=O)N1CCCC(Nc2nc(Nc3ccc(N4CCOCC4C)c(F)c3)c3c(c2F)CNC3=O)C1 (centres unmarked) [Compound G-42]?
A: Area under curve AUC [4]: 1266 ng·h/mL; Maximum blood concentration Cmax [4]: 945.0 ng/mL; Oral relative bioavailability F (%) [4]: 12.3%; Tmax [4]: 15 min; half-time T1/2 [4]: 104 min; IC50 [2]: 5190 nM; IC50 [3]: 5 nM

Q: Which results are given for C=CC(=O)N1CCCC(Nc2nc(-c3cnn(C4CC4)c3)c3c(c2F)CNC3=O)C1 (centres unmarked) [Compound G-45]?
A: IC50 [1]: 109 nM; IC50 [3]: 69 nM

Q: Which IC50 [1] does the source give for C=CC(=O)N1CCCC(Nc2nc(-c3cnn(C(F)F)c3)c3c(c2F)CNC3=O)C1 (centres unmarked) [Compound G-48] here?
A: 62 nM

Q: For C=CC(=O)N1CCCC(Nc2nc(-c3cnn(C)c3)c3c(c2F)CNC3=O)C1C (centres unmarked) [Compound G-51], which IC50 [1] is on record?
A: 80 nM

Q: What about the IC50 [2] of the same compound?
A: 6820 nM

Q: What about the IC50 [3] of the same compound?
A: 62 nM

Q: With C=CC(=O)N1CCCC(Nc2nc3c(c(Nc4cnn(C)c4)n2)C(=O)NC3)C1 (centres unmarked) [Compound G-59, 2-(1-acryloylpiperidin-3-ylamino)-4-(1-methyl-1H-pyrazole-4-ylamino)-6,7-dihydrogen-5H-pyrrolo[3,4-d]pyrimidine-5-one] as the compound, how does the IC50 [1] read?
A: 16 nM

Q: What about the IC50 [2] of the same compound?
A: 1020 nM

Q: And the IC50 [3]?
A: 13 nM

Q: For C=CC(=O)N1CCC2CN(c3nc(Nc4cnn(C)c4)c4c(c3F)CNC4=O)CC21 (centres unmarked) [Compound G-87], which IC50 [1] is on record?
A: 4 nM

Q: What about the IC50 [3] of the same compound?
A: 1 nM

Q: What does the source list for C=CC(=O)N1CCC[C@@H](Nc2nc(-c3cnn(C)c3)c3c(c2F)CNC3=O)C1 [Compound G-111]?
A: AUC ([4]; male, ICR): 2180 ng·h/mL; Cmax ([4]; male, ICR): 3490 ng/mL; Tmax ([4]; male, ICR): 4.8 min; bioavailability ([4]; male, ICR): 79.7%; half-life ([4]; male, ICR): 356 min; IC50 [2]: > 10000 nM; IC50 [3]: 69 nM

Q: Which AUC ([4]; male, ICR) does the source give for C=CC(=O)N1CCC[C@H](Nc2nc(Nc3ccc(N4CCOCC4)cc3)c3c(c2F)CNC3=O)C1 [Compound G-114] here?
A: 1070 ng·h/mL

Q: What about the Cmax ([4]; male, ICR) of the same compound?
A: 1240 ng/mL

Q: What about the Tmax ([4]; male, ICR) of the same compound?
A: 4.8 min

Q: What about the bioavailability ([4]; male, ICR) of the same compound?
A: 13.7%

Q: And the half-life ([4]; male, ICR)?
A: 148 min

Q: And the IC50 [2]?
A: 4130 nM

Q: And the IC50 [3]?
A: 34 nM
